According to ChEMBL document CHEMBL1159148, “Myo-inositol 1,4,6-trisphosphate: A new synthetic Ca2+-mobilising inositol phosphate” (Bioorg Med Chem Lett, 1993):

Organism: Oryctolagus cuniculus
Assay: Compound was evaluated for its ability to release [Ca2+] from permeabilised rabbit platelets
Format: functional

Compound: O=P(O)(O)O[C@@H]1[C@H](O)[C@H](O)[C@@H](OP(=O)(O)O)[C@H](OP(=O)(O)O)[C@H]1O (stereo in doubt; form 1) [INS(1,4,5)P3]
- EC50: 180 nM

Compound: O=P(O)(O)O[C@@H]1[C@H](O)[C@H](O)[C@@H](OP(=O)(O)O)[C@H](OP(=O)(O)O)[C@H]1O (stereo in doubt; form 2) [INS(1,4,5)P3]
- EC50: 2070 nM
